Test results as given in patent publication US7745450B2, “Pyrazolo[4,3-d]pyrimidines, processes for their preparation and methods for therapy” (Institute of Experimental Botany, priority 2002, dated 2010).

What was measured:
KG1 cells = assay: Induction of apoptosis in tumor cells (microscopy, flow cytometry); assay type: cell-based, human; settings: for Speed of apoptosis induction: scored after 6, 12, 24, 48 and 72 hours
Experimental: Microscopy: Nuclear morphology of the cells was analyzed with the fluorochromes Hoechst 33342 (λEx max 346 nm; λEm max 460 nm) (Sigma) prepared in phosphate-buffered saline (PBS at 0.1 mg/ml, added to the culture medium at a final concentration of 2 μg/ml and ethidium homodimer (EB) (λEx max 540 nm; λEm max 625 nm) (Sigma) prepared in PBS at 100 μg/ml and added to the culture medium at a final concentration of 2 μg/ml (Lizard, 1995). Hundred cells were counted for each sample and percentage of apoptosis was determined.
TdT-mediated dUTP nick end labeling (TUNEL): Control and novel compound-treated cell cultures were washed with PBS and fixed in 1% buffered formaldehyde (pH 7.4) for 15 minutes on ice. After washing in PBS, cells were permeabilized in 70% cold (−20° C.) ethanol and transferred to 4° C. for at least 1 hour. After rehydratation in PBS, cells were labeled with 50 μl/well TUNEL reaction mixture (Boehringer Mannheim). Cells were incubated in this solution at 37° C. for 40 minutes, washed in PBS and resuspended in 500 μl PBS containing 5 μg/ml EB and 0.1% RNAse. After 30 minutes of incubation at 4° C., green (FITC-dUTP) and red (EB-DNA) fluorescence of individual cells was measured on a FACscan flow cytometer (Gorczyca, 1993). Negative control (fixed and permeabilized cells incubated with 50 μl label solution per well without terminal transferase, instead of TUNEL reaction mixture) and positive control (fixed and permeabilized cells incubated with DNase I (100 μg/ml) that induces DNA strand breaks) were included in each experimental set-up.
Viable, apoptotic, necrotic (=primary necrosis, not following apoptosis) and secondarily necrotic cells (=late apoptosis, evolving to necrosis) were scored differentially after 6, 12, 24, 48 and 72 hours of exposure to novel compounds. For the three products a different apoptosis-inducing pattern could be observed. Apoptosis induction occurs fast after incubation with 172 and 201 but slower after incubation with 98.
After 6 and 12 hours of incubation the apoptotic population seems mainly to evolve from S phase. […]

[1] = system: Cytokinin-dependent tobacco callus Nicotiana tabacum L. cv. Wisconsins 38; assay: Tobacco callus bioassay for cytotoxicity (herbicidal activity); assay type: cell-based
Summary of the method: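 Compounds were prepared in DMSO as a 10^−3 M stock in water. Growth inhibition was scored from fresh callus weight gain after four weeks, with five replicates and the test run at least twice.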

“5-(3-hydroxypropylamino)-7-[(R,S)-(1-phenyl-2-hydroxyethyl)amino-3-isopropylpyrazolo[4,3-d]pyrimidine [Compound 172]” was tested, and the “Speed of apoptosis induction” value (KG1 cells) was “fast”.

For “5-(3-aminoethylamino)-7-(3,4-dihydroxybenzyl)amino-3-isopropylpyrazolo[4,3-d]pyrimidine [Compound 201]”, the “Incubation time after which apoptosis is detected” value (KG1 cells; flow cytometry, cell line not given) was 6 h and the “Speed of apoptosis induction” value (KG1 cells) was “fast”.

“5-(3-aminopropylamino)-7-benzylamino-3-isopropylpyrazolo[4,3-d]pyrimidine [Compound 17]” was tested, and the “Inhibition of tobacco callus growth” value [1] was “inhibitory effect”.
